Source: ChEMBL document CHEMBL3877278, “Antiproliferative activity of amino substituted benzo[b]thieno[2,3-b]pyrido[1,2-a]benzimidazoles explored by 2D and 3D cell culture system” (Eur J Med Chem, 2017)

Key:
[1] = Lipophilicity, log D of the compound at pH 7.4 by HPLC method; format: physicochemical; conditions: buffer
[2] = Antiproliferative activity against 2D culture of human SK-BR-3 cells after 72 hrs MTS assay; format: functional, cell-based; conditions: SK-BR-3, 72 h
[3] = Lipophilicity, log D of the compound at pH 2.7 by HPLC method; format: physicochemical; conditions: buffer
[4] = Antiproliferative activity against 2D culture of human T47D cells after 72 hrs MTS assay; format: functional, cell-based
[5] = Antiproliferative activity against 3D culture of human SK-BR-3 cells after 72 hrs MTS assay; format: functional, cell-based; conditions: SK-BR-3, 72 h
[6] = Antiproliferative activity against 3D culture of human MDA-MB-231 cells after 72 hrs MTS assay; format: functional, cell-based; conditions: MDA-MB-231, 72 h
[7] = Antiproliferative activity against 3D culture of human T47D cells after 72 hrs MTS assay; format: functional, cell-based
[8] = Antiproliferative activity against 2D culture of human MDA-MB-231 cells after 72 hrs MTS assay; format: functional, cell-based; conditions: MDA-MB-231, 72 h

Row | Structure (SMILES) | logD ([1]; read-out: logD) | IC50 [2] | logD [3] | IC50 [4] | IC50 [5] | IC50 [6] | IC50 [7] | IC50 [8] | logD [1]
1 | N#Cc1cc2ccc(F)cc2n2c1nc1ccccc12 | 5.11 | > 30 µM | 5.14 | > 30 µM | > 30 µM | > 30 µM | > 30 µM | 30 µM | –
2 | N#Cc1c(Cl)c2ccccc2n2c1nc1ccccc12 | 5.85 | > 30 µM | 5.9 | 1 µM | > 30 µM | > 30 µM | > 30 µM | > 30 µM | –
3 | CC(C)CNc1ccc2cc(C#N)c3nc4ccccc4n3c2c1 | 6.58 | 1 µM | 6.45 | 3 µM | > 30 µM | > 30 µM | 19 µM | 5 µM | –
4 | CN(C)CCCNc1ccc2cc(C#N)c3nc4ccccc4n3c2c1 | 2.14 | 4 µM | 0.44 | 12 µM | > 30 µM | 11 µM | > 30 µM | 3 µM | –
5 | N#Cc1cc2ccc(N3CCCCC3)cc2n2c1nc1ccccc12 | 7.07 | 3 µM | 7 | > 30 µM | > 30 µM | > 30 µM | > 30 µM | 7 µM | –
6 | N#Cc1cc2ccc(N3CCNCC3)cc2n2c1nc1ccccc12 | 2.01 | 2 µM | 0.27 | 15 µM | > 30 µM | 5 µM | > 30 µM | 3 µM | –
7 | CC(C)CNc1c(C#N)c2nc3ccccc3n2c2ccccc12 | 5.52 | 4 µM | 2.77 | > 30 µM | > 30 µM | > 30 µM | > 30 µM | > 30 µM | –
8 | CN(C)CCCNc1c(C#N)c2nc3ccccc3n2c2ccccc12 | 2.26 | 4 µM | -0.05 | 29 µM | > 30 µM | 7 µM | > 30 µM | 6 µM | –
9 | N#Cc1c(N2CCCCC2)c2ccccc2n2c1nc1ccccc12 | 6.91 | > 30 µM | 6.36 | > 30 µM | > 30 µM | 3 µM | > 30 µM | > 30 µM | –
10 | N#Cc1c(N2CCNCC2)c2ccccc2n2c1nc1ccccc12 | 2.22 | 9 µM | 0.53 | > 30 µM | > 30 µM | 7 µM | > 30 µM | 8 µM | –
11 | N#Cc1c(N2CCNCC2)c2sc3ccccc3c2n2c1nc1ccccc12 | 3.44 | 4 µM | 1.08 | 5 µM | > 30 µM | 5 µM | > 30 µM | 5 µM | –
12 | N#Cc1c(N2CCCCC2)c2sc3cc(N4CCCCC4)ccc3c2n2c1nc1ccccc12 | – | > 30 µM | – | > 30 µM | > 30 µM | > 30 µM | > 30 µM | > 30 µM | –
13 | CC(C)CNc1ccc2c(c1)sc1c(NCC(C)C)c(C#N)c3nc4ccccc4n3c12 | – | > 30 µM | – | 4 µM | > 30 µM | > 30 µM | 8 µM | > 30 µM | –
14 | CN(C)CCCNc1ccc2c(c1)sc1cc(C#N)c3nc4ccccc4n3c12 | 2.91 | 4 µM | 1.03 | 5 µM | 27 µM | 5 µM | > 30 µM | 2 µM | –
15 | N#Cc1c(N2CCNCC2)c2ccc(N3CCNCC3)cc2n2c1nc1ccccc12 | 0.87 | 7 µM | -0.98 | 5 µM | > 30 µM | 9 µM | > 30 µM | 2 µM | –
16 | N#Cc1c(=O)c2sc3ccccc3c2n2c1[nH]c1ccccc12 | 2.95 | > 30 µM | 3.76 | > 30 µM | > 30 µM | > 30 µM | > 30 µM | > 30 µM | –
17 | N#Cc1cc2sc3cc(N4CCCCC4)ccc3c2n2c1nc1ccccc12 | 8.5 | > 30 µM | 8.52 | > 30 µM | > 30 µM | > 30 µM | > 30 µM | > 30 µM | –

Row | Structure (SMILES) | logD ([1]; read-out: logD) | IC50 [2] | logD [3] | IC50 [4] | IC50 [5] | IC50 [6] | IC50 [7] | IC50 [8] | logD [1]
18 | CC(C)CNc1ccc2c(c1)sc1cc(C#N)c3nc4ccccc4n3c12 | 7.77 | 5 µM | 7.76 | 2 µM | > 30 µM | > 30 µM | 12 µM | 3 µM | –
19 | CC(C)CNc1ccc2c(NCC(C)C)c(C#N)c3nc4ccccc4n3c2c1 | – | 5 µM | – | 12 µM | > 30 µM | > 30 µM | 19 µM | > 30 µM | –
20 | N#CC1C(=O)c2ccc(F)cc2-n2c1nc1ccccc12 (stereo not drawn) | 2.46 | > 30 µM | 3 | > 30 µM | > 30 µM | > 30 µM | > 30 µM | > 30 µM | –
21 | N#Cc1c(Cl)c2sc3ccccc3c2n2c1nc1ccccc12 | 7.32 | > 30 µM | 7.38 | 1 µM | > 30 µM | > 30 µM | > 30 µM | > 30 µM | –
22 | N#Cc1cc2sc3cc(N4CCNCC4)ccc3c2n2c1nc1ccccc12 | 2.75 | 2 µM | 0.84 | 5 µM | 24 µM | 19 µM | 26 µM | 4 µM | –
23 | N#Cc1c(=O)c2sc3cc(F)ccc3c2n2c1[nH]c1ccccc12 | 3.2 | > 30 µM | 4.04 | > 30 µM | > 30 µM | > 30 µM | > 30 µM | > 30 µM | –
24 | CN(C)CCCNc1c(C#N)c2nc3ccccc3n2c2c1sc1ccccc12 | 3.44 | 1 µM | 0.69 | 4 µM | 10 µM | 4 µM | 23 µM | 3 µM | –
25 | N#Cc1c(N2CCCCC2)c2ccc(N3CCCCC3)cc2n2c1nc1ccccc12 | – | > 30 µM | 7.51 | > 30 µM | > 30 µM | > 30 µM | > 30 µM | > 30 µM | 9.11
26 | N#Cc1c(Cl)c2sc3cc(F)ccc3c2n2c1nc1ccccc12 | 3.2 | > 30 µM | 4.04 | > 30 µM | > 30 µM | > 30 µM | > 30 µM | > 30 µM | –
27 | N#CC1C(=O)c2ccccc2-n2c1nc1ccccc12 (stereo not drawn) | 2.09 | > 30 µM | 2.6 | > 30 µM | > 30 µM | > 30 µM | > 30 µM | > 30 µM | –
28 | N#Cc1c(N2CCCCC2)c2sc3ccccc3c2n2c1nc1ccccc12 | 8.34 | > 30 µM | 7.7 | 5 µM | > 30 µM | > 30 µM | > 30 µM | 6 µM | –
29 | N#Cc1c(N2CCNCC2)c2sc3cc(N4CCNCC4)ccc3c2n2c1nc1ccccc12 | 1.89 | 8 µM | -0.51 | 12 µM | > 30 µM | 17 µM | > 30 µM | 4 µM | –
30 | N#Cc1c(Cl)c2ccc(F)cc2n2c1nc1ccccc12 | 6.05 | 5 µM | 6.11 | 2 µM | > 30 µM | > 30 µM | > 30 µM | 11 µM | –
31 | N#Cc1cc2sc3cc(F)ccc3c2n2c1nc1ccccc12 | 6.3 | > 30 µM | 6.32 | 1 µM | > 30 µM | > 30 µM | > 30 µM | > 30 µM | –
32 | CC(C)CNc1c(C#N)c2nc3ccccc3n2c2c1sc1ccccc12 | 6.99 | > 30 µM | 4.67 | 5 µM | > 30 µM | > 30 µM | > 30 µM | 9 µM | –
33 | COc1cccc2c1C(=O)c1c(O)c3c(c(O)c1C2=O)C[C@@](O)(C(=O)CO)C[C@@H]3O[C@H]1C[C@H](N)[C@H](O)[C@H](C)O1 [DOXORUBICIN] | – | – | – | 0.08 µM | 1.29 µM | – | 1.01 µM | – | –
